Like-named read-outs stand apart in the source and are kept apart here.
Columns and labels:
fleas [1] = assay: Similar flea eradication test on cats; assay type: in vivo; conditions: same results as dogs
[2] = test system: fleas (Ctenocephalides felis); assay: Eradication of fleas in enclosures of infested dogs treated monthly with a spot-on solution; assay type: in vivo; conditions: group C, 10% fipronil cutaneous point solution on days 0, 28, 56, 84, weekly egg counts, body and comb counts over weeks 1-12, regularly reinfested
From the text: The test used dogs in good health.
The dogs were divided by groups of three dogs into enclosures of area approximately 4.80 m long (16 feet) and 1.5 m wide (5 feet) each containing a shelter and soil especially favourable to the development of the immature stages of the fleas (Ctenocephalides felis).
A total of 18 dogs, that is to say six enclosures, was allocated to the control group A.
A group C of six dogs (2 enclosures) preinfested in this way received the treatment according to the invention by application of a cutaneous point solution having a concentration of 10% of fipronil.
The doses of concentrated composition for local cutaneous application of fipronil were as follows:
The animals of group C were treated on day 0 and then every 28 days, that is to say the days 28, 56 and 84.

fleas [3] = conditions: cats; concentrated solution for point application (spot on); cited from earlier work
fleas [4] = conditions: dogs; concentrated solution for point application (spot on); cited from earlier work

In the case of `N#Cc1nn(-c2c(Cl)cc(C(F)(F)F)cc2Cl)c(N)c1[S+]([O-])C(F)(F)F` (stereo not shown) [fipronil, 1-[2,6-Cl2-4-CF3-phenyl]-3-CN-4-[SO—CF3]-5-NH2-pyrazole], the reinfestation (fleas [1]) is listed as “total absence of reinfestation”, the “rate of control of the infestation” value [2] is listed as 100% and the “period of anti-flea efficacy” value (fleas [3]) is listed as “six”. For the same compound, the “period of anti-flea efficacy” value (fleas [4]) was 2 to 3 months.
